Experiments:
[1] = Compound was evaluated for its increased potency in bone resorption assay; type: functional
[2] = target: Cathepsin K (Oryctolagus cuniculus, UniProt P43236); assay: Inhibitory concentration against humanized rabbit cathepsin K
[3] = target: Cathepsin B (Homo sapiens, UniProt P07858); assay: Inhibitory concentration against human cathepsin B
[4] = target: Procathepsin L (Homo sapiens, UniProt P07711); assay: Inhibitory concentration against human cathepsin L
[5] = target: Cathepsin S (Homo sapiens, UniProt P25774); assay: Inhibitory concentration against human cathepsin S
Chain of Cathepsin S (P25774 whole entry): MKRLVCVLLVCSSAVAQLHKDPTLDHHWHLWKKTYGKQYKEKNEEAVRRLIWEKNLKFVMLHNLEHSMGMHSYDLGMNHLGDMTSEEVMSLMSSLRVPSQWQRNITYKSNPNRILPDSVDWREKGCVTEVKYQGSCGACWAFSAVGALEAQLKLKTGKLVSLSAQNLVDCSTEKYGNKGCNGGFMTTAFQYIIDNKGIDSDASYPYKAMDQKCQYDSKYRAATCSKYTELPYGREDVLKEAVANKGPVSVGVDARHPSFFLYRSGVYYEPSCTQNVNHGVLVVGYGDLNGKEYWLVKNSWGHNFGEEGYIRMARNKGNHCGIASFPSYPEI

[6] = target: T1, Cathepsin K (Homo sapiens, UniProt P43235); assay: Inhibitory concentration against human cathepsin K
T1 sequence (P43235 whole entry): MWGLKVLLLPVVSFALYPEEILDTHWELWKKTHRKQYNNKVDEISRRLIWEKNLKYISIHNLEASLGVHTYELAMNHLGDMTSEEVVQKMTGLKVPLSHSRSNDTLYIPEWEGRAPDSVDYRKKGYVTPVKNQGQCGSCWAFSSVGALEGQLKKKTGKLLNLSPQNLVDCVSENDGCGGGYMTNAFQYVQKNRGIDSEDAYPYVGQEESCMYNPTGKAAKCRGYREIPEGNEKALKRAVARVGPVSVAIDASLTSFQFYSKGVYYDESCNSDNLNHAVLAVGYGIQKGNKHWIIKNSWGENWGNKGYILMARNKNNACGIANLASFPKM

Chain of Procathepsin L (P07711 whole entry): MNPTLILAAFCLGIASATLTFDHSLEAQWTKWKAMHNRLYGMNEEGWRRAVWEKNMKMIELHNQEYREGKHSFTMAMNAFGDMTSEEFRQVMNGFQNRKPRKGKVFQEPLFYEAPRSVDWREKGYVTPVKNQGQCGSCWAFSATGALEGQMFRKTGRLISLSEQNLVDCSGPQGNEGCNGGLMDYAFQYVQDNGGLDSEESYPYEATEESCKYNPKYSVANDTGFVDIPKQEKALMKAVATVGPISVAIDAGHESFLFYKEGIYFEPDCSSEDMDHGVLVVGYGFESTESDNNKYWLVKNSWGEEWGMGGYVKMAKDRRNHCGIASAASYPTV

Structure (SMILES) | IC50 [2] [nM] | IC50 [3] [nM] | IC50 [4] [nM] | IC50 [5] [nM] | IC50 [6] [nM] | Activity [1] [nM]
CC(C)C[C@H](Nc1ccccc1-c1ccc(N2CCNCC2)cc1)C(=O)NCC#N | 3 | 1810 | 2100 | 158 |  | 9
CC(C)C[C@H](Nc1cccc(-c2ccc(N3CCNCC3)cc2)c1)C(=O)NCC#N | 2 | 93 | 108 | 24 |  | 61
CC(C)CC(Nc1ccccc1Br)C(=O)NCC#N (stereo not given) | 54 |  |  |  |  | 
CC(C)CC(Nc1cccc(Br)c1)C(=O)NCC#N (stereo not given) | 72 |  |  |  |  | 
CC(C)CC(Sc1ccccc1Br)C(=O)NCC#N (stereo not given) | 433 |  |  |  |  | 
CC(C)CC(Sc1cccc(Br)c1)C(=O)NCC#N (stereo not given) | 684 |  |  |  |  | 
CC(C)CC(Cc1cccc(Br)c1)C(=O)NCC#N (stereo not given) | 3390 |  |  |  |  | 
CC(C)CC(Oc1cccc(Br)c1)C(=O)NCC#N (stereo not given) | 1470 |  |  |  |  | 
CC(C)C[C@H](Nc1cscc1-c1ccc(N2CCNCC2)cc1)C(=O)NCC#N | 1 | 123 | 352 | 102 | 0.2 | 10
CC(C)CC(Oc1ccc(Br)cc1)C(=O)NCC#N (stereo not given) | 3000 |  |  |  |  | 
CC(C)CC(Oc1ccccc1Br)C(=O)NCC#N (stereo not given) | 1150 |  |  |  |  | 
CC(C)CC(Sc1ccc(Br)cc1)C(=O)NCC#N (stereo not given) | 675 |  |  |  |  | 

The remaining compounds from weak to strong by IC50 [2], led by results:

IC50 [2] [nM] | IC50 [3] [nM] | IC50 [4] [nM] | IC50 [5] [nM] | IC50 [6] [nM] | Structure (SMILES) | Activity [1] [nM]
2390 |  |  |  |  | CC(C)CC(Cc1ccc(Br)cc1)C(=O)NCC#N (stereo not given) | 
2350 |  |  |  |  | CC(C)CC(Cc1ccccc1Br)C(=O)NCC#N (stereo not given) | 
208 |  |  |  |  | CC(C)CC(Nc1ccc(Br)cc1)C(=O)NCC#N (stereo not given) | 
43 | 158 | 458 | 897 |  | CC(C)C[C@H](Nc1cscc1Br)C(=O)NCC#N | 71
27 | 26 | 115 | 34 |  | CC(C)C[C@H](Nc1ccc(-c2ccc(N3CCNCC3)cc2)cc1)C(=O)NCC#N | 37
11 |  |  |  |  | CC(C)C[C@@H](C(=O)NCC#N)c1cccc(-c2ccc(N3CCNCC3)cc2)c1 | 95

From ChEMBL document CHEMBL1137165, “Rational design of potent and selective NH-linked aryl/heteroaryl cathepsin K inhibitors” (Bioorg Med Chem Lett, 2004)
